The results in this text go back to US6251917A, “Benzamidoaldehydes and their use as cysteine protease inhibitors” (BASF Aktiengesellschaft, priority 1996, dated 2001).

The assay has as its target T1, Human μ-calpain (Homo sapiens, UniProt P07384).
T1 construct: Human μ-calpain is isolated from erythrocytes; from tissue; host or cells: human erythrocytes
T1 sequence (P07384 1-714): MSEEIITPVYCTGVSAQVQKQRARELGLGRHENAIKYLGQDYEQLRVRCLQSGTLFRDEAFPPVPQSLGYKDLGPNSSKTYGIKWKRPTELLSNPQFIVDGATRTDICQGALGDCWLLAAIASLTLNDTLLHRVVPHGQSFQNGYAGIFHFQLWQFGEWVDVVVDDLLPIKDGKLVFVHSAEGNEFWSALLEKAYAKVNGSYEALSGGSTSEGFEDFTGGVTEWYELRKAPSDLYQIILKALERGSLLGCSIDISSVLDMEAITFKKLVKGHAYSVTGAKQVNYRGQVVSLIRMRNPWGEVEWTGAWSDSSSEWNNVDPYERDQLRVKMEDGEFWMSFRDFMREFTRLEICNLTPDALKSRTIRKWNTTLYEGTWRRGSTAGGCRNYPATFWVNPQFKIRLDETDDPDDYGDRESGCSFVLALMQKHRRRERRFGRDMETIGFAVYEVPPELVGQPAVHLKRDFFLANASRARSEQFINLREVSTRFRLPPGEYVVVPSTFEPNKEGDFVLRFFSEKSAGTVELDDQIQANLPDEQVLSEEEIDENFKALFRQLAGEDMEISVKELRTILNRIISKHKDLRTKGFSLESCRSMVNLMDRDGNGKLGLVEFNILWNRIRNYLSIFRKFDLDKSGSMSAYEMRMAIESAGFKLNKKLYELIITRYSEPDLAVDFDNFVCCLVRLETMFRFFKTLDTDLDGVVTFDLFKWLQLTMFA
T1 sequence (P04632 1-268 partner): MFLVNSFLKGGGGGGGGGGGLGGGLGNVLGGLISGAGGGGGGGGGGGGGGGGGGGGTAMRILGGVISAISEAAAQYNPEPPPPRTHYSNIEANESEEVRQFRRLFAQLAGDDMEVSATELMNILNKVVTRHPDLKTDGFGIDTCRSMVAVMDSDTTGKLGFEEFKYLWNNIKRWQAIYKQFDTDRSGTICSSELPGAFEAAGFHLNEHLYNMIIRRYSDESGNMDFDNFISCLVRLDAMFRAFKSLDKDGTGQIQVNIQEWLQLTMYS
Briefly: Calpain I and II test (fluorogenic substrate Suc-Leu-Tyr-AMC). It counts as biochemical. The protocol: The inhibitory properties of calpain inhibitors were studied in a buffer containing 50 mM of Tris-HCl, pH 7.5; 0.1 M of NaCl; 1 mM of dithiotreithol; 0.11 mM of CaCl2, using the fluorogenic calpain substrate Suc-Leu-Tyr-AMC (25 mM dissolved in DMSO, Bachem/Switzerland) (Sasaki et al. J. Biol. Chem. 1984, Vol. 259, 12489-12494). Human μ-calpain is isolated from erythrocytes similarly to the methods of Croall and DeMartino (BBA 1984, Vol. 788, 348-355) and Graybill et al. (Bioorg. & Med. Lett. 1995, Vol. 5, 387-392). After several chromatographic steps (DEAE-Sepharose, Phenyl-Sepharose, Superdex 200 and Blue-Sepharose), the enzyme is obtained in a purity of <[sic] 95%, according to SDS-PAGE, Western blot analysis and N-terminal sequencing. The fluorescence of the cleavage product 7-amino-4-methylcoumarin (AMC) is monitored in a Spex-Fluorolog fluorimeter at λex =380 nm an λem =460 nm. Over a measured range of 60 min, the cleavage of the substrate is linear and the autocatalytic activity of calpain is low when the experiments are carried out at 12° C. (see Chatterjee et al. 1996, Bioorg. & Med. Chem. Lett., Vol 6, 1619-1622). […]
In a typical experiment, 10 μl of substrate (250 μm final) and then 10 μl of μ-calpain (2 μg/ml final, i.e. 18 nM) are added to a 1 ml cuvette containing buffer. The calpain-mediated cleavage of the substrate is measured for 15 to 20 min. […]

In the case of `O=C[C@H](Cc1ccccc1)NC(=O)c1ccccc1-c1ccccc1` [Example 30, (S)-2-Phenyl-N-(3-phenylpropan-1-al-2-yl)benzamide], under “comparison with literature compound (M. R. Angelastro et al., J. Med. Chem. 1990, 33, 11-13)”, the “effectiveness compared with N-(1-3-phenylpropan-1-al-2-yl)benzamide” value was “significantly more effective”. The Ki – broadly, a dissociation constant, usually derived from enzyme kinetics or from competition with a known ligand – (reversible inhibition, 12° C., pH 7.5) was less than 500 nM.
